Data from BigSolDB 2.1.

Nc1cccnc1
solubility (mole fraction)
Settings | 288.15 K | 293.15 K | 298.15 K | 303.15 K | 308.15 K | 313.15 K | 318.15 K | 323.15 K
in acetone | 0.155 | 0.194 | 0.244 | 0.305 | 0.38 | 0.468 | 0.565 | 0.668
in n-butyl acetate | 0.432 | 0.481 | 0.537 | 0.591 | 0.65 | 0.712 | 0.77 | 0.835
